Results published in the supplement of paper PMC4862054.
“And” between values parts separate entries of the source, which are not always exact repeats. Equal values may be shown once.

Tests used:
Details in all cases: incubation time: 72 h
HCC1599 [1] = assay: normalised viability (% of control), CellTiter-Blue; higher = more viable cells (about 100 = DMSO control)
How it was run: (§1)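 Compound dissolved in 5 µl medium was pre-loaded into 384-well plates, and breast cancer cell lines in 20 µl suspension were seeded on top and incubated 72 h. After adding 2.5 µl CellTiter-Blue reagent for 2 h at 37 °C, fluorescence was read at 560/590 nm. Plates were normalised to vehicle (100) and a positive kill control (0), with Z'-factor quality control. Each value is normalised viability at a single listed concentration from the series.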

HCC1937 [2] = assay: as above
How it was run: as §1

CAL-51 [3] = assay: as above
How it was run: as §1

MDA-MB-231 [4] = assay: as above
How it was run: as §1

MDA-MB-468 [5] = assay: as above
How it was run: as §1

BT-474 [6] = assay: as above
How it was run: as §1

HDQ-P1 [7] = assay: as above
How it was run: as §1

HCC1143 [8] = assay: as above
How it was run: as §1

DU-4475 [9] = assay: as above
How it was run: as §1

HCC1599 [10] = assay: drug sensitivity score (DSS), CellTox Green (DSS (AUC-based score)); higher = stronger drug effect (viability inhibition or cytotoxicity); extreme values may be limits of the assay
How it was run: (§2)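 Each compound occupied 5 concentrations in 10-fold steps over its own 10,000-fold range in 384-well plates, into which breast cancer cell lines were seeded as 20 µl suspension. Following 72 h of incubation, CellTox Green fluorescence (485/520 nm) was measured, and CellTiter-Glo luminescence was measured after 10 min at room temperature. Plates were individually normalised to 0.1 % DMSO and a positive kill control. From the area under the fitted dose-response curve, a drug sensitivity score was calculated.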

HCC1937 [11] = assay: as above
How it was run: as §2

MDA-MB-453 = assay: as above
How it was run: as §2

CAL-120 = assay: as above
How it was run: as §2

CAL-51 [12] = assay: as above
How it was run: as §2

MDA-MB-231 [13] = assay: as above
How it was run: as §2

MDA-MB-468 [14] = assay: as above
How it was run: as §2

BT-474 [15] = assay: as above
How it was run: as §2

CAL-85-1 = assay: as above
How it was run: as §2

Hs578T = assay: as above
How it was run: as §2

HDQ-P1 [16] = assay: as above
How it was run: as §2

BT-549 = assay: as above
How it was run: as §2

HCC1143 [17] = assay: as above
How it was run: as §2

MDA-MB-436 = assay: as above
How it was run: as §2

MCF-10A = assay: as above
How it was run: as §2

DU-4475 [18] = assay: as above
How it was run: as §2

O=C(CCCCCCC(=O)Nc1ccccc1)NO [Vorinostat]
normalised viability
Details	BT-474 [6]	CAL-51 [3]	DU-4475 [9]	HCC1143 [8]	HCC1599 [1]	HCC1937 [2]	HDQ-P1 [7]	MDA-MB-231 [4]	MDA-MB-468 [5]
3 nM	–	113% and 102%	108% and 97.7%	–	–	–	99.4% and 88.7%	–	–
10 nM	98.6% and 105%	–	–	86.1% and 105%	110% and 97.9%	73% and 92.4%	–	99.4% and 89.5%	105%
30 nM	–	102%	104% and 99.7%	–	–	–	97.2% and 84.3%	–	–
100 nM	–	106% and 97.5%	99.1% and 94.5%	–	–	–	95.6% and 87.5%	–	–
1000 nM	92.6% and 78.7%	–	–	86.9% and 84.5%	85.5% and 99.2%	77.7% and 63.4%	–	88.3% and 84.1%	80.6% and 76%
10000 nM	3.63% and 2.44%	–	–	21.4% and 24.2%	20.5%	24.6% and 22.7%	–	13.9% and 12.9%	32.5% and 40.6%

Details	drug sensitivity score
BT-474 [15]	2.68
BT-549	0.875
CAL-51 [12]	6.5
CAL-85-1	0
CAL-120	2.58
DU-4475 [18]	0
HCC1143 [17]	1.23
HCC1599 [10]	0
HCC1937 [11]	0
HDQ-P1 [16]	0
Hs578T	4.59
MCF-10A	0
MDA-MB-231 [13]	8.86
MDA-MB-436	0
MDA-MB-453	0
MDA-MB-468 [14]	2.22

Cc1cn(-c2cc(NC(=O)c3ccc(C)c(Nc4nccc(-c5cccnc5)n4)c3)cc(C(F)(F)F)c2)cn1 [Nilotinib]
Details	normalised viability
BT-474 [6], 10 nM	107% and 99.8%
BT-474 [6], 1000 nM	93.9% and 106%
BT-474 [6], 10000 nM	92.1% and 103%
CAL-51 [3], 3 nM	107% and 112%
CAL-51 [3], 30 nM	108% and 106%
CAL-51 [3], 100 nM	101% and 111%
DU-4475 [9], 3 nM	105% and 98.1%
DU-4475 [9], 30 nM	96.6% and 119%
DU-4475 [9], 100 nM	97.6% and 99.3%
HCC1143 [8], 10 nM	70.6% and 81.2%
HCC1143 [8], 1000 nM	98.7% and 101%
HCC1143 [8], 10000 nM	65% and 65.2%
HCC1599 [1], 10 nM	93.3% and 95.8%
HCC1937 [2], 10 nM	86% and 80.5%
HCC1937 [2], 1000 nM	69.4%
HCC1937 [2], 10000 nM	71.9% and 73.7%
HDQ-P1 [7], 3 nM	92.5% and 86.2%
HDQ-P1 [7], 30 nM	87.3% and 81.5%
HDQ-P1 [7], 100 nM	95.3% and 83.1%
MDA-MB-231 [4], 10 nM	87.6% and 94.3%
MDA-MB-231 [4], 1000 nM	71.3% and 75.2%
MDA-MB-231 [4], 10000 nM	57.3% and 45.2%
MDA-MB-468 [5], 10 nM	100% and 102%
MDA-MB-468 [5], 1000 nM	108% and 106%
MDA-MB-468 [5], 10000 nM	97.5% and 108%

Details	drug sensitivity score
BT-474 [15]	0
BT-549	1.71
CAL-51 [12]	0
CAL-85-1	0
CAL-120	0
DU-4475 [18]	0
HCC1143 [17]	0
HCC1599 [10]	0
HCC1937 [11]	0
HDQ-P1 [16]	0
Hs578T	0.546
MCF-10A	0
MDA-MB-231 [13]	3.55
MDA-MB-436	0
MDA-MB-453	0
MDA-MB-468 [14]	0
